According to publication PMC12119672, “Development and evaluation of [^11C]DPA-813 and [^18F]DPA-814: novel TSPO PET tracers insensitive to human single nucleotide polymorphism rs6971” (European Journal of Nuclear Medicine and Molecular Imaging, 2025):

Tested on: EAE rat model (spinal cord)
Test: PET imaging in the EAE rat model
Format: in vivo
Conditions: for higher uptake (AUC of time activity curve) in the spinal cord of EAE rats compared to CFA control: dynamic PET 60 min, peak of clinical symptoms

SMILES | higher difference EAE vs control compared with the fluorinated compound ([11C]DPA-813 vs [18F]DPA-814, [11C]DPA-713 vs [18F]DPA-714) [folds] | higher uptake (AUC of time activity curve) in the spinal cord of EAE rats compared to CFA control [%]
CCN(CC)C(=O)Cc1c(-c2ccc(O[11CH3])cc2)nn2c(C)cc(C)nc12 [[^11C]DPA-713, reference compound] | 2.5 | 67
CCN(CC)C(=O)Cc1c(-c2ccc(OCC[18F])cc2)nn2c(C)cc(C)nc12 [[^18F]DPA-714, reference compound] | – | 27
